# Laboratory results from patent US8324245B2, “Quinoline derivative and quinazoline derivative inhibiting self-phosphorylation of hepatocytus proliferator receptor, and medicinal composition containing the same” (Kyowa Hakko Kirin Co., Ltd., priority 2001, dated 2012).
# Target: T1, met (HGF receptor) in human gastric cancer cells MKN45 (Homo sapiens, UniProt P08581)
# T1 construct: endogenous in cells; host or cells: MKN45 human gastric cancer cells
# Test: Inhibitory activity against met-autophosphorylation using ELISA method (2), MKN45 cells, HGF-independent
# Format: cell-based
# How it was run: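 Met autophosphorylation was read by sandwich ELISA: phosphotyrosine capture (PY20), anti-HGF receptor detection, peroxidase read-out at 450 nm. Lysates came from MKN45 gastric cancer cells kept in 0.1% FCS RPMI and treated 1 h at 37 °C with test compound, with no added HGF.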
# T1 sequence (P08581 25-1390): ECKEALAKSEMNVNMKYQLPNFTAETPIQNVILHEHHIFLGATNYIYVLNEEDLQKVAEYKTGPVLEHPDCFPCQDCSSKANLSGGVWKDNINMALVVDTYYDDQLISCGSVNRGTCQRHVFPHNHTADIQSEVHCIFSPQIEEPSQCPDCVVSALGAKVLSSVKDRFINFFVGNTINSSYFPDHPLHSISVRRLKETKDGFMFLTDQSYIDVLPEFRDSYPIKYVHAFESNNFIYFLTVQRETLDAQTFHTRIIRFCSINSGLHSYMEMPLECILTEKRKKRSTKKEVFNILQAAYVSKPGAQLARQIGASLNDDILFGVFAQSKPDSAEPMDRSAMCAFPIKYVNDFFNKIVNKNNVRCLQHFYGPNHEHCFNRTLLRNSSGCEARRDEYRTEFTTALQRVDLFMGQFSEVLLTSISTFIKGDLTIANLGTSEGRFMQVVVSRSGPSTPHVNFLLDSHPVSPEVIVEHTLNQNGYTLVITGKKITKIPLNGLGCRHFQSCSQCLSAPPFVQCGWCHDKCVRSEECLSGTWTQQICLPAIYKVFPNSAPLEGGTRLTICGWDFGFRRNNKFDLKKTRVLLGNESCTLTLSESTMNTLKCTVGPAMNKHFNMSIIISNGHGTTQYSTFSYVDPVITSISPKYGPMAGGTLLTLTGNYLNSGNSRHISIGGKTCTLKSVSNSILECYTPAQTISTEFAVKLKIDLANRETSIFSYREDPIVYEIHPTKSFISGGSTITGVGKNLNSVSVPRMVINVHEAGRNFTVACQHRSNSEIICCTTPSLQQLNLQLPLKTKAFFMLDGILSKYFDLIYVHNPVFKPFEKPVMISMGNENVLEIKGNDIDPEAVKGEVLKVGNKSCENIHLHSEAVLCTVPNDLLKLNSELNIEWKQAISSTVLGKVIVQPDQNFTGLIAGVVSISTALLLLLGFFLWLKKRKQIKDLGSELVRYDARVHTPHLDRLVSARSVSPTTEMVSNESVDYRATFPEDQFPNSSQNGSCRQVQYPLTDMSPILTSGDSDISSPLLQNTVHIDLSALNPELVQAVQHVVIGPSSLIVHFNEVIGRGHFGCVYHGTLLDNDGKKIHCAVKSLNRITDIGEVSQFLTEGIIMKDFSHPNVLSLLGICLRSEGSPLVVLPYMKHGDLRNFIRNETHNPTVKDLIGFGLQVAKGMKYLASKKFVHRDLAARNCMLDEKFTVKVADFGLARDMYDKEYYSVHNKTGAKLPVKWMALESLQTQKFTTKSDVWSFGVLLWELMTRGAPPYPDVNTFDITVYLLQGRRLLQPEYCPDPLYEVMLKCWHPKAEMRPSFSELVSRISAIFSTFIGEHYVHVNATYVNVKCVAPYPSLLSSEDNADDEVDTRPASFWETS
row,Compound,IC50
1,"COc1cc2nccc(Oc3ccc(NC(=O)NC(=O)Nc4ccccc4Cc4ccccc4)cc3)c2cc1OC [Example 246, N-(2-benzylphenyl)-({[4-(6,7-dimethoxy-quinolin-4-yloxy)anilino]carbonyl}amino)methanamide]",2910 nM
2,"COc1cc2c(Oc3ccc(NC(=S)NC(=O)Cc4ccc(Cl)cc4)cc3F)ccnc2cc1OCC(O)CN1CCCC1 (stereo not drawn) [Example 328, 1-[2-(4-Chloro-phenyl)-acetyl]-3-{3-fluoro-4-[7-(2-hydroxy-3-pyrrolidin-1-yl-propoxy)-6-methoxy-quinolin-4-yloxy]-phenyl}-thiourea]",43.2 nM
3,COc1cc2c(Oc3ccc(NC(=S)NC(=O)Cc4ccc(C)cc4)cc3F)ccnc2cc1OCC(O)CN1CCOCC1 (stereo not drawn) [Example 335],23.6 nM
4,"COc1cc2c(Oc3ccc(NC(=O)NC(=O)Cc4ccc(F)cc4)c(F)c3)ccnc2cc1OCCCN1CCCCC1 [Example 50, 1-{2-fluoro-4-[6-methoxy-7-(3-piperidin-1-yl-propoxy)quinolin-4-yloxy]phenyl}-3-[2-(4-fluorophenyl)-acetyl]urea]",235 nM
5,"COc1cc2nccc(Oc3ccc(NC(=S)NC(=O)Cc4cc(F)ccc4F)c(F)c3)c2cc1OC [Example 96, 1-[2-(2,5-difluorophenyl)acetyl]-3-[4-(6,7-dimethoxyquinolin-4-yloxy)-2-fluorophenyl]thiourea]",171 nM
6,"COc1cc2nccc(Oc3ccc(NC(=O)NC(=O)Nc4ccc5c(c4)CCC5)cc3)c2cc1OC [Example 243, N-(2,3-dihydro-1H-5-indenyl)-({[4-(6,7-dimethoxyquinolin-4-yloxy)anilino]carbonyl}amino)-methanamide]",3010 nM
7,"COc1cc2nccc(Oc3ccc(NC(=S)NC(=O)c4cccc5ccccc45)c(F)c3)c2cc1OC [Example 57, 1-[4-(6,7-dimethoxyquinolin-4-yloxy)-2-fluoro-phenyl]-3-(naphthalene-1-carbonyl)thiourea]",132 nM
8,"COc1cc2c(Oc3ccc(NC(=O)NC(=O)Cc4ccc(F)cc4)c(F)c3)ccnc2cc1OCCCCN1CCOCC1 [Example 44, 1-{2-fluoro-4-[6-methoxy-7-(4-morpholin-4-yl-butoxy)quinolin-4-yloxy]phenyl}-3-[2-(4-fluorophenyl)-acetyl]urea]",291 nM
9,"COc1cc2nccc(Oc3ccc(NC(=O)NC(=O)Cc4cccs4)cc3Cl)c2cc1OC [Example 32, 1-[3-chloro-4-(6,7-dimethoxyquinolin-4-yloxy)-phenyl]-3-(2-thiophen-2-ylacetyl)urea]",171 nM
10,"COc1cc2nccc(Oc3ccc(NC(=S)NC(=O)Cc4ccc(C)cc4)cc3)c2cc1OC [Example 168, 1-[4-(6,7-dimethoxyquinolin-4-yloxy)phenyl]-3-(2-p-tolylacetyl)thiourea]",306 nM
11,"COc1cc2nccc(Oc3ccc(NC(=S)NC(=O)Cc4ccccc4C)cc3F)c2cc1OC [Example 84, 1-[4-(6,7-dimethoxyquinolin-4-yloxy)-3-fluorophenyl]-3-(2-o-tolylacetyl)thiourea]",40 nM
12,"COc1cc2nccc(Oc3ccc(NC(=S)NC(=O)CC4CCC(C)CC4)cc3F)c2cc1OC (stereo not drawn) [Example 192, 1-[4-(6,7-dimethoxyquinolin-4-yloxy)-3-fluorophenyl]-3-[2-(4-methyl-cyclohexyl)acetyl]thiourea]",687 nM
13,"COc1cc2nccc(Oc3ccc(NC(=O)NC(=O)CN4CCc5ccccc54)c(F)c3)c2cc1OC [Example 121, 1-[2-(2,3-dihydro-1H-1-indol-1-yl)acetyl]-3-[4-(6,7-dimethoxyquinolin-4-yloxy)-2-fluorophenyl]urea]",338 nM
14,"COc1cc2nccc(Oc3ccc(NC(=O)CC(=O)NC4CCCCC4)cc3)c2cc1OC [Example 217, N-cyclohexyl-N′-[4-(6,7-dimethoxyquinolin-4-yloxy)phenyl]malonamide]",333 nM
15,"COc1cc2c(Oc3ccc(NC(=S)NC(=O)Cc4ccccc4)cc3Cl)ccnc2cc1OCCCN1CCOCC1 [Example 300, 1-{3-Chloro-4-[6-methoxy-7-(3-morpholin-4-yl-propoxy)-quinolin-4-yloxy]-phenyl}-3-phenylacetyl-thiourea]",22.4 nM
16,"COc1cc2nccc(Oc3ccc(NC(=O)NC(=O)Nc4ccc(CC#N)cc4)cc3)c2cc1OC [Example 241, N-[4-(cyanomethyl)phenyl]-({[4-(6,7-dimethoxyquinolin-4-yloxy)anilino]carbonyl}amino)-methanamide]",3320 nM
17,"COc1cc2nccc(Oc3ccc(NC(=O)NC(=O)Cc4ccsc4)cc3F)c2cc1OC [Example 20, 1-[4-(6,7-dimethoxyquinolin-4-yloxy)-3-fluoro-phenyl]-3-(2-thiophen-3-ylacetyl)urea]",31.8 nM
18,"CCOCCC(=O)NC(=S)Nc1ccc(Oc2ccnc3cc(OC)c(OC)cc23)c(F)c1 [Example 165, 1-[4-(6,7-dimethoxyquinolin-4-yloxy)-3-fluorophenyl]-3-(3-ethoxypropionyl)thiourea]",495 nM

row,Compound,IC50
1,"COc1cc2nccc(Oc3ccc(NC(=S)NC(=O)Cc4c(F)ccc(F)c4F)cc3Cl)c2cc1OC [Example 207, 1-[3-chloro-4-(6,7-dimethoxyquinolin-4-yloxy)phenyl]-3-[2-(2,3,6-trifluorophenyl)acetyl]-thiourea]",300 nM
2,"COc1cc2c(Oc3ccc(NC(=S)NC(=O)Cc4cccc(F)c4)cc3F)ccnc2cc1OCC(O)CN1CCCC1 (stereo not drawn) [Example 325, 1-{3-Fluoro-4-[7-(2-hydroxy-3-pyrrolidin-1-yl-propoxy)-6-methoxy-quinolin-4-yloxy]-phenyl}-3-[2-(3-fluoro-phenyl)-acetyl]-thiourea]",18.5 nM
3,"COc1cc2nccc(Oc3ccc(NC(=O)CC(=O)NC4CCC4)cc3)c2cc1OC [Example 212, N-cyclobutyl-N′-[4-(6,7-dimethoxyquinolin-4-yloxy)phenyl]malonamide]",379 nM
4,"COc1cc2c(Oc3ccc(NC(=O)NC(=O)Cc4ccccc4)cc3F)ccnc2cc1OCCCn1ccnc1 [Example 305, 1-{3-Fluoro-4-[7-(3-imidazol-1-yl-propoxy)-6-methoxy-quinolin-4-yloxy]-phenyl}-3-phenylacetyl-urea]",21.4 nM
5,"COc1cc2nccc(Oc3ccc(NC(=O)CC(=O)Nc4ccc(Cl)cc4)cc3)c2cc1OC [Example 219, N-(4-chlorophenyl)-N′-[4-(6,7-dimethoxy-quinolin-4-yloxy)phenyl]malonamide]",736 nM
6,"COc1cc2nccc(Oc3ccc(NC(=S)NC(=O)CCc4ccccc4C)cc3F)c2cc1OC [Example 64, 1-[4-(6,7-dimethoxyquinolin-4-yloxy)-3-fluoro-phenyl]-3-(3-o-tolylpropionyl)thiourea]",140 nM
7,"COc1cc(Oc2ccnc3cc(OC)c(OC)cc23)ccc1NC(=S)NC(=O)Cc1ccccc1 [Example 69, 1-[4-(6,7-dimethoxyquinolin-4-yloxy)-2-methoxyphenyl]-3-phenylacetylthiourea]",4.4 nM
8,"COc1cc2nccc(Oc3ccc(NC(=S)NC(=O)Cc4ccc(C)cc4)cc3Cl)c2cc1OC [Example 82, 1-[3-chloro-4-(6,7-dimethoxyquinolin-4-yloxy)-phenyl]-3-(2-p-tolylacetyl)thiourea]",74.3 nM
9,"COc1cc2c(Oc3ccc(NC(=S)NC(=O)Cc4ccc(F)cc4)cc3F)ccnc2cc1OCC(O)CN1CCCCC1 (stereo not drawn) [Example 329, 1-{3-Fluoro-4-[7-(2-hydroxy-3-piperidin-1-yl-propoxy)-6-methoxy-quinolin-4-yloxy]-phenyl}-3-[2-(4-fluoro-phenyl)-acetyl]-thiourea]",51.8 nM
10,"COc1cc2nccc(Oc3ccc(NC(=O)C(C)C(=O)Nc4ccc(F)cc4F)cc3)c2cc1OC (stereo not drawn) [Example 15, N-(2,4-difluorophenyl)-N′-[4-(6,7-dimethoxy-quinolin-4-yloxy)phenyl]-2-methylmalonamide]",302 nM
11,"COc1cc2nccc(Oc3ccc(NC(=O)NC(=O)Nc4cc(C)on4)cc3)c2cc1OC [Example 232, N-(5-methyl-3-isoxazolyl)-({[4-(6,7-dimethoxyquinolin-4-yloxy)anilino]carbonyl}amino)-methanamide]",256 nM
12,"COc1cc2nccc(Oc3ccc(NC(=S)NC(=O)c4cccc5ccccc45)cc3)c2cc1OC [Example 56, 1-[4-(6,7-dimethoxyquinolin-4-yloxy)phenyl]-3-(naphthalene-1-carbonyl)thiourea]",140 nM
13,"COc1cc2c(Oc3ccc(NC(=S)NC(=O)Cc4ccccc4)cc3F)ccnc2cc1OCCCn1ccnc1 [Example 307, 1-{3-Fluoro-4-[7-(3-imidazol-1-yl-propoxy)-6-methoxy-quinolin-4-yloxy]-phenyl}-3-phenylacetyl-thiourea]",57.4 nM
14,"COc1cc2nccc(Oc3ccc(NC(=O)NC(=O)Nc4ccc(F)cc4Cl)cc3)c2cc1OC [Example 250, N-(2-chloro-4-fluorophenyl)-({[4-(6,7-dimethoxyquinolin-4-yloxy)anilino]carbonyl}amino)-methanamide]",447 nM
15,"COc1cc2c(Oc3ccc(NC(=S)NC(=O)Cc4cccc(F)c4)cc3F)ccnc2cc1OCCN1CCOCC1 [Example 279, 1-{3-Fluoro-4-[6-methoxy-7-(2-morpholin-4-yl-ethoxy)-quinolin-4-yloxy]-phenyl}-3-[2-(3-fluoro-phenyl)-acetyl]-thiourea]",20.4 nM
16,"COc1cc2c(Oc3ccc(NC(=O)NC(=O)Cc4ccc(F)cc4)cc3F)ccnc2cc1OCCN1CCN(C)CC1 [Example 49, 1-(3-fluoro-4-{6-methoxy-7-[2-(4-methyl-piperazin-1-yl)-ethoxy]quinolin-4-yloxy}phenyl)-3-[2-(4-fluorophenyl)acetyl]urea]",51.4 nM
17,"COc1cc2nccc(Oc3ccc(NC(=S)NC(=O)Cc4cccc(C(F)(F)F)c4)cc3F)c2cc1OC [Example 203, 1-[4-(6,7-dimethoxyquinolin-4-yloxy)-3-fluorophenyl]-3-[2-(3-trifluoromethylphenyl)acetyl]-thiourea]",281 nM
18,"COc1cc2nccc(Oc3ccc(NC(=O)NC(=O)CC4C5CCC4CC5)c(F)c3)c2cc1OC (stereo not drawn) [Example 126, 1-(2-bicyclo[2.2.1]hepto-7-ylacetyl)-3-[4-(6,7-dimethoxyquinolin-4-yloxy)-2-fluorophenyl]urea]",330 nM
